Experimental findings from ChEMBL document CHEMBL3297711, “Application of encoded library technology (ELT) to a protein-protein interaction target: discovery of a potent class of integrin lymphocyte function-associated antigen 1 (LFA-1) antagonists” (Bioorg Med Chem, 2014) are described below.

For one assay, the target named is T1, Integrin alpha-L (Homo sapiens, UniProt P20701).
T1 sequence (P20701 whole entry): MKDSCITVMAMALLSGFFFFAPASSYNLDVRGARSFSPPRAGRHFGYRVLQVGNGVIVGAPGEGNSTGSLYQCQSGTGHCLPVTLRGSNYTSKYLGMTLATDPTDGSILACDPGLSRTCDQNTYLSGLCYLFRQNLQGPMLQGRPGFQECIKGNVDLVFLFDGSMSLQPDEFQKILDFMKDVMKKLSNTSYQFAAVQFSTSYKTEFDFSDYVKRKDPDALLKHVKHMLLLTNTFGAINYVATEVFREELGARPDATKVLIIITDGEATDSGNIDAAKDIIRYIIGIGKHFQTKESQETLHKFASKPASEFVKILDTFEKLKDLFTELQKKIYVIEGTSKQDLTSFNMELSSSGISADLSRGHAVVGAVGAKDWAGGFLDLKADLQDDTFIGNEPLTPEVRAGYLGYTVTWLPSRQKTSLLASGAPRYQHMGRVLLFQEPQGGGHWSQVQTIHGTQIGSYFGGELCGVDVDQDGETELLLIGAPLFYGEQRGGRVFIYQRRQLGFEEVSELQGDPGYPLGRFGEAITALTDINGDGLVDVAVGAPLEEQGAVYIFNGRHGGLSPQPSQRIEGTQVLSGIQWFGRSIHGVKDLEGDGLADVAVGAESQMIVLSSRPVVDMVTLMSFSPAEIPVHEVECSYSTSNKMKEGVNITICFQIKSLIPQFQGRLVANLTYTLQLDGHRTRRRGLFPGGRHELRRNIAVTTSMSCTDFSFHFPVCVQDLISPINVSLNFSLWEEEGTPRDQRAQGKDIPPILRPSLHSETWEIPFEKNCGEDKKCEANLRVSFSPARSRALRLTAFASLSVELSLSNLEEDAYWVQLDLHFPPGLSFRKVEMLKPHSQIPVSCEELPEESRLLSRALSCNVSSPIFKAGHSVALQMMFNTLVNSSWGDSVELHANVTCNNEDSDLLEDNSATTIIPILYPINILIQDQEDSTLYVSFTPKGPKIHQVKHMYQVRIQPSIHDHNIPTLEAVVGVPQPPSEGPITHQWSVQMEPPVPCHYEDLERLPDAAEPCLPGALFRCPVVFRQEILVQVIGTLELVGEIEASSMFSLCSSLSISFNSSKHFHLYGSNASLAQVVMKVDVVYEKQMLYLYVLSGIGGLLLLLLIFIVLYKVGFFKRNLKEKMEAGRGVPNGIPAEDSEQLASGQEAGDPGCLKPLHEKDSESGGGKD
Kind of assay: (§1) Antagonist activity at C-terminal 6xHis-tagged LFA-1 LBD (unknown origin) expressed in Escherichia coli assessed as inhibition of interaction with ICAM-1 preincubated for 30 mins followed by ICAM-1 addition measured after 60 mins by ELISA. For orientation: An ELISA detects its analyte on a solid surface through an enzyme-linked reagent.

For assay [1], the target named is T2, Integrin alpha-L (Homo sapiens) (UniProt P20701).
T2 sequence (whole entry): T1 sequence (P20701 whole entry)
The assay is described as follows: Allosteric antagonist activity at wild type LFA-1 (unknown origin) transfected in human K562 cells assessed as inhibition of cell adhesion to ICAM-1 at 50 uM incubated for 30 mins under dark condition by microplate fluorimetric analysis. Type of assay: cell-based.

For assay [2], the target named is T2, Integrin alpha-L (Homo sapiens). Kind of assay: Antagonist activity at wild type LFA-1 in human Jurkat cells assessed as inhibition of PMA-stimulated cell adhesion to ICAM-1 at 50 uM incubated for 45 mins under dark condition by microplate fluorimetric analysis. Format: cell-based.
Assay [3] concerns K562. Kind of assay: Allosteric antagonist activity at LFA-1 K287C/K294C double mutant (unknown origin) transfected in human K562 cells assessed as inhibition of cell adhesion to ICAM-1 at 50 uM incubated for 30 mins under dark condition by microplate fluorimetric analysis in presence of DTT. Type of assay: cell-based.
For assay [4], the target named is T2, Integrin alpha-L (Homo sapiens). Described as §1.
The subject of assay [5] is K562. Kind of assay: Allosteric antagonist activity at LFA-1 K287C/K294C double mutant (unknown origin) transfected in human K562 cells assessed as inhibition of cell adhesion to ICAM-1 at 50 uM incubated for 30 mins under dark condition by microplate fluorimetric analysis in absence of DTT. Type of assay: cell-based.
Assay [6] deals with T2, Integrin alpha-L (Homo sapiens). Kind of assay: Binding affinity to LFA-1 (unknown origin) transfected in human K562 cells by FACS analysis relative to control. Format: cell-based. (Flow cytometry measures light scatter and fluorescence of single cells or particles in a stream.)

SMILES strings stand for the structures. Active and inactive are the calls of the source. No cut-off for these calls is given here. Bounds are passed on as bounds.

By IC50 is commonly meant the concentration that inhibits the measured activity by half. Regarding `O=C(c1cccc(C(F)(F)F)c1)N1CC2CC1CN2c1nc(NCCc2ccc(Cl)c(Cl)c2)nc(NC2CCCC2)n1` (stereo not drawn), on Integrin alpha-L, the IC50 is over 10000 nM.

Consider `CCNC(=O)C1(Nc2nc(N[C@H](C)c3ccccc3)nc(N3CC4CC3CN4C(=O)c3cccc(C(F)(F)F)c3)n2)Cc2ccccc2C1` (stereo partly drawn), for which the IC50 at Integrin alpha-L was over 10000 nM.

Regarding `CCNC(=O)C1(Nc2nc(NCc3ccccc3)nc(N3CC4CC3CN4C(=O)c3cccc(C(F)(F)F)c3)n2)Cc2ccccc2C1` (stereo not drawn), the IC50 at Integrin alpha-L was 7900 nM.

For the molecule `CCNC(=O)C1(Nc2nc(NCCc3ccc(Cl)c(Cl)c3)nc(N3CC4CC3CN4S(=O)(=O)c3ccccc3OC(F)(F)F)n2)Cc2ccccc2C1` (stereo not drawn), the inhibition result (in assay [1]; in assay [2]; in the assay with K562 [3]) was “Active” in each case. In addition, the IC50 at Integrin alpha-L turned out to be 22 nM. In addition, the inhibition result in assay [4] is “Dose-dependent effect”. In the assay on K562 [5], the inhibition entry is “inactive”.

For the molecule `CCNC(=O)C1(Nc2nc(NCC)nc(N3CC4CC3CN4C(=O)c3cccc(C(F)(F)F)c3)n2)Cc2ccccc2C1` (stereo not drawn), the IC50 at Integrin alpha-L is over 10000 nM.

`CCN1/C(=C/C=C/C2=[N+](CCCCCC(=O)NCCCCNC(=O)C3(Nc4nc(NCCc5ccc(Cl)c(Cl)c5)nc(N5CC6CC5CN6S(=O)(=O)c5cccc(C(F)(F)F)c5)n4)Cc4ccccc4C3)c3ccc(S(=O)(=O)O)cc3C2(C)C)C(C)(C)c2cc(S(=O)(=O)O)ccc21` (stereo not drawn) displayed a fold change (FC) in assay [6] of 2. Moreover, on Integrin alpha-L, the IC50 was 28 nM.

For `CCNC(=O)C1(Nc2nc(N[C@@H](C)c3ccc(Br)cc3)nc(N3CC4CC3CN4S(=O)(=O)c3ccccc3OC(F)(F)F)n2)Cc2ccccc2C1` (stereo partly drawn), the inhibition entry (in assay [1]; in assay [2]; with K562 [3]) was “Active” throughout. Moreover, the half-maximal inhibitory concentration (IC50) on Integrin alpha-L turned out to be 117 nM. In assay [4], the inhibition result is “Dose-dependent effect”. Also, in the assay on K562 [5], the inhibition result is “inactive”.

On to `CCNC(=O)C1(Nc2nc(N[C@@H](C)c3ccc(Br)cc3)nc(N3CC4CC3CN4C(=O)c3cccc(C(F)(F)F)c3)n2)Cc2ccccc2C1` (stereo partly drawn), for which the inhibition entry (in assay [1]; in assay [2]; with K562 [3]) was “Active” throughout. Also, on Integrin alpha-L, the IC50 is 16 nM. Further, in assay [4], the inhibition entry is “Dose-dependent effect”. Moreover, the inhibition entry with K562 [5] was “inactive”.

Take `O=C(c1cccc(C(F)(F)F)c1)N1CC2CC1CN2c1nc(NCCc2ccc(Cl)c(Cl)c2)nc(NC2Cc3ccccc3C2)n1` (stereo not drawn): on Integrin alpha-L, the IC50 was determined as 358 nM.

As to `CCNC(=O)C1(Nc2nc(NCCc3ccc(Cl)c(Cl)c3)nc(N3CCCC3)n2)Cc2ccccc2C1`, at Integrin alpha-L, the IC50 amounted to 12900 nM.

For the molecule `CCN1/C(=C/C=C/C2=[N+](CCCCCC(=O)NCCCCNC(=O)C3(Nc4nc(NCCc5ccc(Cl)c(Cl)c5)nc(N5CC6CC5CN6C(=O)c5cccc(C(F)(F)F)c5)n4)Cc4ccccc4C3)c3ccc(S(=O)(=O)O)cc3C2(C)C)C(C)(C)c2cc(S(=O)(=O)O)ccc21` (stereo not drawn), the fold change (FC) in assay [6] came out at 3. Besides, at Integrin alpha-L, the IC50 worked out at 100 nM.

Take `O=C(O)C1(Nc2nc(NCCc3ccc(Cl)c(Cl)c3)nc(N3CC4CC3CN4S(=O)(=O)c3cccc(C(F)(F)F)c3)n2)Cc2ccccc2C1` (stereo not drawn): on Integrin alpha-L, the half-inhibitory concentration (IC50) came out at 65 nM.

Turning to `CCNC(=O)C1(Nc2nc(NCCc3ccc(Cl)c(Cl)c3)nc(N3CC4CC3CN4C(=O)c3cccc(C(F)(F)F)c3)n2)Cc2ccccc2C1` (stereo not drawn), the inhibition result (in assay [1]; in assay [2]; in the assay on K562 [3]) was “Active” throughout. For the same molecule, the half-maximal inhibitory concentration (IC50) on Integrin alpha-L is 23 nM. In addition, the inhibition entry in assay [4] was “Dose-dependent effect”. Also, the inhibition entry with K562 [5] is “inactive”.

As to `CCNC(=O)C1(Nc2nc(N[C@@H](C)c3ccccc3)nc(N3CC4CC3CN4C(=O)c3cccc(C(F)(F)F)c3)n2)Cc2ccccc2C1` (stereo partly drawn), the IC50 at Integrin alpha-L stood at 180 nM.

`CCNC(=O)C1(Nc2nc(NCCc3ccccc3)nc(N3CC4CC3CN4C(=O)c3cccc(C(F)(F)F)c3)n2)Cc2ccccc2C1` (stereo not drawn): on Integrin alpha-L, the IC50 is 488 nM.

For the molecule `O=C(c1cccc(C(F)(F)F)c1)N1CC2CC1CN2c1nc(NCCc2ccc(Cl)c(Cl)c2)nc(NC2(C(=O)O)Cc3ccccc3C2)n1` (stereo not drawn), at Integrin alpha-L, the IC50 was found to be 37 nM.
